Patent USPP13279P2, “Mint plant named ‘Saksham’” (Council of Scientific and Industrial Research, priority 2000, dated 2002)

Test system: in vitro regenerates (shoots) of Mentha arvensis ‘Himalaya’ somaclones
Test: Menthol tolerance/toxicity test of in vitro regenerates in MS based medium containing menthol
Type: cell-based
Source text: The applicants used the plant ‘Himalaya’ (U.S. Plant Pat. No. 10,935), an elite mint genotype for large scale screening of in vitro raised clones (Khanuja S P S, Shasany A K, Dhawan S, Sushil Kumar, 1998, Rapid procedure for isolating somaclones of altered genotypes in Mentha arvensis. J medicinal and Aromatic Plant Sciences 20:359-361) to select clones tolerant to high menthol concentration in the medium (An efficient in vitro selection procedure for large scale screening of mint clones to isolate high menthol genotypes. Khanuja et al, Procedure patent pending, 1999).
While testing the tolerance of in vitro regenerates in presence of menthol in the MS based medium (Murashige T and Skoog F, 1962, A revised medium for rapid growth and bioassay with tobacco tissue cultures; Physiol. Planta. 15 473-497), the initial toxicity symptoms were first observed at the menthol concentration of 40 μg ml^−1 menthol after 7 days. […] Here it was immediate chlorophyll loss and irreversible wilting of the shoots, non-rescuable even by culturing these regenerates in normal medium without menthol. Lowest survival was detected at a concentration of 70 μg ml^−1, where only 1% shoots could survive. […] Ultimately 36, clones were selected for tolerance at 70 μg ml^−1 menthol by screening about 2950 clones. These were transferred to field for evaluation in a plant test area at Lucknow, India. […]

CC1CCC(C(C)C)C(O)C1 (centres unmarked) [menthol]
menthol concentration tolerated in the culture medium (clone GRB-30 (‘Saksham’), retesting in vitro): 80 µg/mL | shoots that could survive (lowest survival) (menthol 70 μg ml^−1 in the medium): 1%
